Source: the supplement of paper PMC4862054

Assays:
Details in all cases: incubation time: 72 h
MDA-MB-453 [1] = test: normalised viability (% of control), CellTiter-Blue; higher = more viable cells (about 100 = DMSO control)
Description: (§1)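 DSRT, CellTiter-Blue viability, 72 h incubation. Signal is normalised to DMSO and benzethonium chloride controls. Value is the normalised response at dose 7.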

HDQ-P1 [2] = test: as above
Description: as §1

CAL-51 [3] = test: as above
Description: as §1

DU-4475 [4] = test: as above
Description: as §1

CAL-148 [5] = test: as above
Description: as §1

CAL-85-1 [6] = test: as above
Description: as §1

MDA-MB-453 [7] = test: normalised response (% of control), CellTox Green; higher = less cell death (100 = DMSO, 0 = benzethonium chloride kill control)
Outline: (§2)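 Breast cancer cell lines in 20 µl suspension were added to 384-well plates containing compound at 5 concentrations, spaced in 10-fold steps across a 10,000-fold range chosen for each compound, and incubated for 72 h. CellTox Green fluorescence was read at 485/520 nm, followed by CellTiter-Glo luminescence after 10 min at room temperature. Signals on each plate were normalised so that 0.1 % DMSO equals 100 and a positive kill control equals 0. Every value in the table is the normalised signal at one concentration of the series.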

MDA-MB-468 = test: as above
Outline: as §2

BT-474 [8] = test: as above
Outline: as §2

HDQ-P1 [9] = test: as above
Outline: as §2

CAL-51 [10] = test: as above
Outline: as §2

MDA-MB-436 [11] = test: as above
Outline: as §2

Hs578T = test: as above
Outline: as §2

DU-4475 [12] = test: as above
Outline: as §2

MFM-223 = test: as above
Outline: as §2

HCC1599 = test: as above
Outline: as §2

HCC1143 = test: as above
Outline: as §2

MCF-10A = test: as above
Outline: as §2

CAL-148 [13] = test: as above
Outline: as §2

CAL-85-1 [14] = test: as above
Outline: as §2

HCC1937 = test: as above
Outline: as §2

CAL-120 = test: as above
Outline: as §2

BT-549 = test: as above
Outline: as §2

MDA-MB-231 = test: as above
Outline: as §2

BT-474 [15] = test: drug sensitivity score (DSS), CellTiter-Blue viability (DSS (AUC-based score)); higher = stronger viability inhibition; extreme values may be limits of the assay
Description: (§3)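 DSRT with the CellTiter-Blue (resazurin reduction) viability readout, fluorescence 560/590 nm, 72 h incubation. Plates were normalised to DMSO and benzethonium chloride controls. DSS is computed from the area under the fitted dose-response curve (5 or 9 concentrations).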

MDA-MB-436 [16] = test: as above
Description: as §3

DU-4475 [17] = test: as above
Description: as §3

What does the source list for `CO[C@H]1/C=C\C=C(/C)C(=O)NC2=CC(=O)C(NCCN(C)C)=C(C[C@@H](C)C[C@H](OC)[C@H](O)[C@@H](C)/C=C(\C)[C@@H]1OC(N)=O)C2=O` [Alvespimycin] (100 nM)?
normalised viability (MDA-MB-453 [1]): 6.21%; normalised viability (HDQ-P1 [2]): 38%; normalised viability (CAL-51 [3]): 34.7%; normalised viability (DU-4475 [4]): 0.89%; normalised viability (CAL-148 [5]): 15.6%; normalised viability (CAL-85-1 [6]): 33.1%; normalised response (MDA-MB-453 [7]): 91.4%; normalised response (MDA-MB-468): 104%; normalised response (BT-474 [8]): 76.6%; normalised response (HDQ-P1 [9]): 75.2%; normalised response (CAL-51 [10]): 60.4%; normalised response (MDA-MB-436 [11]): 89.6%; normalised response (Hs578T): 101%; normalised response (DU-4475 [12]): 68.1%; normalised response (MFM-223): 89.6%; normalised response (HCC1599): 107%; normalised response (HCC1143): 69.1%; normalised response (MCF-10A): 33.3%; normalised response (CAL-148 [13]): 48.7%; normalised response (CAL-85-1 [14]): 71.6%; normalised response (HCC1937): 118%; normalised response (CAL-120): 95%; normalised response (BT-549): 130%; normalised response (MDA-MB-231): 67.9%

`Cc1ccc(-n2nc(C(C)(C)C)cc2NC(=O)Nc2ccc(OCCN3CCOCC3)c3ccccc23)cc1` [Doramapimod] (1000 nM) was tested. Which normalised viability (MDA-MB-453 [1]) did it give?
Its normalised viability is 87.9%.

And the normalised viability (HDQ-P1 [2])?
Its normalised viability is 66.7%.

And the normalised viability (CAL-51 [3])?
Its normalised viability is 101%.

What about the normalised viability (DU-4475 [4]) of the same compound?
Its normalised viability is 122%.

And the normalised viability (CAL-148 [5])?
The normalised viability was 105%.

What about the normalised viability (CAL-85-1 [6]) of the same compound?
Its normalised viability is 73.5%.

What about the normalised response (MDA-MB-453 [7]) of the same compound?
The normalised response was 105%.

And the normalised response (MDA-MB-468)?
The normalised response was 122%.

And the normalised response (BT-474 [8])?
Its normalised response is 97.6%.

What about the normalised response (HDQ-P1 [9]) of the same compound?
The normalised response was 89.6%.

And the normalised response (CAL-51 [10])?
Its normalised response is 101%.

What about the normalised response (MDA-MB-436 [11]) of the same compound?
The normalised response was 87.7%.

And the normalised response (Hs578T)?
The normalised response was 82.6%.

And the normalised response (DU-4475 [12])?
Its normalised response is 95.2%.

What about the normalised response (MFM-223) of the same compound?
Its normalised response is 100%.

And the normalised response (HCC1599)?
Its normalised response is 83.8%.

What about the normalised response (HCC1143) of the same compound?
Its normalised response is 104%.

And the normalised response (MCF-10A)?
Its normalised response is 101%.

What about the normalised response (CAL-148 [13]) of the same compound?
Its normalised response is 104%.

And the normalised response (CAL-85-1 [14])?
The normalised response was 113%.

What about the normalised response (HCC1937) of the same compound?
Its normalised response is 109%.

What about the normalised response (CAL-120) of the same compound?
The normalised response was 96.1%.

What about the normalised response (BT-549) of the same compound?
Its normalised response is 93.2%.

What about the normalised response (MDA-MB-231) of the same compound?
The normalised response was 102%.

What does the source list for `Cc1ccc(-n2nc(C(C)(C)C)cc2NC(=O)Nc2ccc(OCCN3CCOCC3)c3ccccc23)cc1` [Doramapimod]?
drug sensitivity score (BT-474 [15]): 0; drug sensitivity score (MDA-MB-436 [16]): 0; drug sensitivity score (DU-4475 [17]): 0

`CCC1=C[C@@H]2CN(C1)Cc1c([nH]c3ccccc13)[C@@](C(=O)OC)(c1cc3c(cc1OC)N(C)[C@H]1[C@@](O)(C(=O)OC)[C@H](OC(C)=O)[C@]4(CC)C=CCN5CC[C@]31[C@@H]54)C2` [Vinorelbine] was tested. Which drug sensitivity score (BT-474 [15]) did it give?
Its drug sensitivity score is 16.1.

What about the drug sensitivity score (MDA-MB-436 [16]) of the same compound?
The drug sensitivity score was 16.5.

And the drug sensitivity score (DU-4475 [17])?
The drug sensitivity score was 15.8.

Which results are given for `CCC1=C[C@@H]2CN(C1)Cc1c([nH]c3ccccc13)[C@@](C(=O)OC)(c1cc3c(cc1OC)N(C)[C@H]1[C@@](O)(C(=O)OC)[C@H](OC(C)=O)[C@]4(CC)C=CCN5CC[C@]31[C@@H]54)C2` [Vinorelbine] (1000 nM)?
normalised viability (MDA-MB-453 [1]): 28%; normalised viability (HDQ-P1 [2]): 38.6%; normalised viability (CAL-51 [3]): 19.7%; normalised viability (DU-4475 [4]): 29%; normalised viability (CAL-148 [5]): 21.1%; normalised viability (CAL-85-1 [6]): 37.5%; normalised response (MDA-MB-453 [7]): 101%; normalised response (MDA-MB-468): 98.1%; normalised response (BT-474 [8]): 61.2%; normalised response (HDQ-P1 [9]): -18.4%; normalised response (CAL-51 [10]): 18.8%; normalised response (MDA-MB-436 [11]): 76.9%; normalised response (Hs578T): 27.5%; normalised response (DU-4475 [12]): 96.7%; normalised response (MFM-223): 55.2%; normalised response (HCC1599): 79.5%; normalised response (HCC1143): 104%; normalised response (MCF-10A): 26.6%; normalised response (CAL-148 [13]): 54.8%; normalised response (CAL-85-1 [14]): 68.7%; normalised response (HCC1937): 92.5%; normalised response (CAL-120): 91.7%; normalised response (BT-549): 63.8%; normalised response (MDA-MB-231): 20.9%

How did the normalised viability (MDA-MB-453 [1]) turn out when `Clc1ccc(Nc2nnc(Cc3ccncc3)c3ccccc23)cc1` [Vatalanib] (1000 nM) was run?
The normalised viability was 91.6%.

And the normalised viability (HDQ-P1 [2])?
The normalised viability was 98.6%.

And the normalised viability (CAL-51 [3])?
Its normalised viability is 101%.

What about the normalised viability (DU-4475 [4]) of the same compound?
The normalised viability was 97.8%.

What about the normalised viability (CAL-148 [5]) of the same compound?
The normalised viability was 83.4%.

And the normalised viability (CAL-85-1 [6])?
Its normalised viability is 92.5%.

What about the normalised response (MDA-MB-453 [7]) of the same compound?
Its normalised response is 104%.

And the normalised response (MDA-MB-468)?
The normalised response was 138%.

And the normalised response (BT-474 [8])?
The normalised response was 97.2%.

And the normalised response (HDQ-P1 [9])?
The normalised response was 105%.

What about the normalised response (CAL-51 [10]) of the same compound?
Its normalised response is 109%.

And the normalised response (MDA-MB-436 [11])?
The normalised response was 102%.

What about the normalised response (Hs578T) of the same compound?
The normalised response was 105%.

What about the normalised response (DU-4475 [12]) of the same compound?
Its normalised response is 101%.

What about the normalised response (MFM-223) of the same compound?
Its normalised response is 103%.

And the normalised response (HCC1599)?
The normalised response was 104%.

What about the normalised response (HCC1143) of the same compound?
The normalised response was 64.7%.

What about the normalised response (MCF-10A) of the same compound?
The normalised response was 84.5%.

And the normalised response (CAL-148 [13])?
Its normalised response is 98.1%.

And the normalised response (CAL-85-1 [14])?
Its normalised response is 104%.

What about the normalised response (HCC1937) of the same compound?
The normalised response was 134%.

And the normalised response (CAL-120)?
The normalised response was 92.8%.

And the normalised response (BT-549)?
Its normalised response is 137%.

What about the normalised response (MDA-MB-231) of the same compound?
Its normalised response is 118%.

Which results are given for `C[C@@H](Oc1cc(-c2cnn(C3CCNCC3)c2)cnc1N)c1c(Cl)ccc(F)c1Cl` [Crizotinib] (1000 nM)?
normalised viability (MDA-MB-453 [1]): 91.9%; normalised viability (HDQ-P1 [2]): 92.5%; normalised viability (CAL-51 [3]): 108%; normalised viability (DU-4475 [4]): 108%; normalised viability (CAL-148 [5]): 96.4%; normalised viability (CAL-85-1 [6]): 86.9%; normalised response (MDA-MB-453 [7]): 98.3%; normalised response (MDA-MB-468): 123%; normalised response (BT-474 [8]): 98.9%; normalised response (HDQ-P1 [9]): 72.7%; normalised response (CAL-51 [10]): 83.6%; normalised response (MDA-MB-436 [11]): 57.6%; normalised response (Hs578T): 103%; normalised response (DU-4475 [12]): 107%; normalised response (MFM-223): 78.6%; normalised response (HCC1599): 111%; normalised response (HCC1143): 131%; normalised response (MCF-10A): 95.9%; normalised response (CAL-148 [13]): 97.2%; normalised response (CAL-85-1 [14]): 76.1%; normalised response (HCC1937): 87%; normalised response (CAL-120): 102%; normalised response (BT-549): 131%; normalised response (MDA-MB-231): 115%
